Data as given in PubChem BioAssay (NCI).
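Method: 48-hour compound exposure of cells in 96-well plates, five concentrations, linear interpolation of endpoints. TGI is the concentration that stops growth completely.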

What was measured:
Experiment in all cases: NCI tumour cell line growth inhibition, 48 h
LOX IMVI melanoma = test system: LOX IMVI melanoma
NCI-H226 lung = test system: NCI-H226 lung
OVCAR-3 ovarian = test system: OVCAR-3 ovarian
MCF7 breast = test system: MCF7 breast
CCRF-CEM leukemia = test system: CCRF-CEM leukemia
NCI-H23 lung = test system: NCI-H23 lung
SNB-75 CNS = test system: SNB-75 CNS
EKVX NSCLC = test system: EKVX NSCLC
SF-268 CNS = test system: SF-268 CNS
KM12 colon = test system: KM12 colon
HT29 colon = test system: HT29 colon
UO-31 renal = test system: UO-31 renal
HOP-92 NSCLC = test system: HOP-92 NSCLC
COLO 205 colon = test system: COLO 205 colon
NCI-H460 lung = test system: NCI-H460 lung
DU-145 prostate = test system: DU-145 prostate
TK-10 renal = test system: TK-10 renal
NCI/ADR-RES ovarian = test system: NCI/ADR-RES ovarian
K-562 leukemia = test system: K-562 leukemia
RXF 393 renal = test system: RXF 393 renal
MDA-MB-231 breast = test system: MDA-MB-231 breast
SK-MEL-28 melanoma = test system: SK-MEL-28 melanoma
SK-MEL-5 melanoma = test system: SK-MEL-5 melanoma
HOP-62 NSCLC = test system: HOP-62 NSCLC
MDA-MB-435 = test system: MDA-MB-435
HCT-116 colon = test system: HCT-116 colon
MALME-3M melanoma = test system: MALME-3M melanoma
HS 578T breast = test system: HS 578T breast
SW-620 colon = test system: SW-620 colon
CAKI-1 renal = test system: CAKI-1 renal
A549 NSCLC = test system: A549 NSCLC
T-47D breast = test system: T-47D breast
RPMI-8226 leukemia = test system: RPMI-8226 leukemia
OVCAR-5 ovarian = test system: OVCAR-5 ovarian
HCT-15 colon = test system: HCT-15 colon
SF-295 CNS = test system: SF-295 CNS
M14 melanoma = test system: M14 melanoma
OVCAR-4 ovarian = test system: OVCAR-4 ovarian
UACC-257 melanoma = test system: UACC-257 melanoma
SK-MEL-2 melanoma = test system: SK-MEL-2 melanoma
SK-OV-3 ovarian = test system: SK-OV-3 ovarian
SF-539 CNS = test system: SF-539 CNS
SN12C renal = test system: SN12C renal
MOLT-4 leukemia = test system: MOLT-4 leukemia
SR leukemia = test system: SR leukemia
786-0 renal = test system: 786-0 renal
ACHN renal = test system: ACHN renal
SNB-19 CNS = test system: SNB-19 CNS
HL-60(TB) leukemia = test system: HL-60(TB) leukemia
PC-3 prostate = test system: PC-3 prostate
MDA-N = test system: MDA-N
U251 CNS = test system: U251 CNS
A498 renal = test system: A498 renal
UACC-62 melanoma = test system: UACC-62 melanoma
NCI-H522 lung = test system: NCI-H522 lung
HCC-2998 colon = test system: HCC-2998 colon
IGROV1 ovarian = test system: IGROV1 ovarian
OVCAR-8 ovarian = test system: OVCAR-8 ovarian
BT-549 breast = test system: BT-549 breast

COc1ccc(NC(=O)c2cc(NC(=O)/C=C/c3ccccc3)c(OC)c(OC)c2)cc1
TGI (LOX IMVI melanoma): > 100 µM | TGI (NCI-H226 lung): > 100 µM | TGI (OVCAR-3 ovarian): > 100 µM | TGI (MCF7 breast): > 100 µM | TGI (CCRF-CEM leukemia): > 100 µM | TGI (NCI-H23 lung): > 100 µM | TGI (SNB-75 CNS): 48.5 µM | TGI (EKVX NSCLC): > 100 µM | TGI (SF-268 CNS): > 100 µM | TGI (KM12 colon): > 100 µM | TGI (HT29 colon): > 100 µM | TGI (UO-31 renal): 5.62 µM | TGI (HOP-92 NSCLC): > 100 µM | TGI (COLO 205 colon): > 100 µM | TGI (NCI-H460 lung): > 100 µM | TGI (DU-145 prostate): > 100 µM | TGI (TK-10 renal): > 100 µM | TGI (NCI/ADR-RES ovarian): > 100 µM | TGI (K-562 leukemia): > 100 µM | TGI (RXF 393 renal): > 100 µM | TGI (MDA-MB-231 breast): > 100 µM | TGI (SK-MEL-28 melanoma): > 100 µM | TGI (SK-MEL-5 melanoma): > 100 µM | TGI (HOP-62 NSCLC): > 100 µM | TGI (MDA-MB-435): 9.38 µM | TGI (HCT-116 colon): > 100 µM | TGI (MALME-3M melanoma): 99.6 µM | TGI (HS 578T breast): > 100 µM | TGI (SW-620 colon): > 100 µM | TGI (CAKI-1 renal): > 100 µM | TGI (A549 NSCLC): > 100 µM | TGI (T-47D breast): > 100 µM | TGI (RPMI-8226 leukemia): > 100 µM | TGI (OVCAR-5 ovarian): > 100 µM | TGI (HCT-15 colon): > 100 µM | TGI (SF-295 CNS): > 100 µM | TGI (M14 melanoma): > 100 µM | TGI (OVCAR-4 ovarian): > 100 µM | TGI (UACC-257 melanoma): > 100 µM | TGI (SK-MEL-2 melanoma): 7.27 µM | TGI (SK-OV-3 ovarian): > 100 µM | TGI (SF-539 CNS): > 100 µM | TGI (SN12C renal): > 100 µM | TGI (MOLT-4 leukemia): > 100 µM | TGI (SR leukemia): > 100 µM | TGI (786-0 renal): > 100 µM | TGI (ACHN renal): > 100 µM | TGI (SNB-19 CNS): > 100 µM | TGI (HL-60(TB) leukemia): 45.4 µM | TGI (PC-3 prostate): > 100 µM | TGI (MDA-N): 16.5 µM | TGI (U251 CNS): > 100 µM | TGI (A498 renal): > 100 µM | TGI (UACC-62 melanoma): > 100 µM

CC(C)OCC(O)COc1cc(=O)oc2ccccc12 (stereo not drawn)
TGI (LOX IMVI melanoma): > 100 µM | TGI (OVCAR-3 ovarian): > 100 µM | TGI (MCF7 breast): > 100 µM | TGI (CCRF-CEM leukemia): > 100 µM | TGI (NCI-H23 lung): > 100 µM | TGI (EKVX NSCLC): > 100 µM | TGI (SF-268 CNS): > 100 µM | TGI (KM12 colon): > 100 µM | TGI (HT29 colon): > 100 µM | TGI (UO-31 renal): > 100 µM | TGI (HOP-92 NSCLC): > 100 µM | TGI (COLO 205 colon): > 100 µM | TGI (NCI-H460 lung): > 100 µM | TGI (DU-145 prostate): > 100 µM | TGI (TK-10 renal): > 100 µM | TGI (NCI/ADR-RES ovarian): > 100 µM | TGI (K-562 leukemia): > 100 µM | TGI (MDA-MB-231 breast): > 100 µM | TGI (SK-MEL-28 melanoma): > 100 µM | TGI (SK-MEL-5 melanoma): > 100 µM | TGI (HOP-62 NSCLC): > 100 µM | TGI (NCI-H522 lung): > 100 µM | TGI (MDA-MB-435): > 100 µM | TGI (HCT-116 colon): > 100 µM | TGI (MALME-3M melanoma): > 100 µM | TGI (HS 578T breast): > 100 µM | TGI (SW-620 colon): > 100 µM | TGI (CAKI-1 renal): > 100 µM | TGI (A549 NSCLC): > 100 µM | TGI (T-47D breast): > 100 µM | TGI (RPMI-8226 leukemia): > 100 µM | TGI (OVCAR-5 ovarian): > 100 µM | TGI (HCT-15 colon): > 100 µM | TGI (SF-295 CNS): > 100 µM | TGI (M14 melanoma): > 100 µM | TGI (OVCAR-4 ovarian): > 100 µM | TGI (UACC-257 melanoma): > 100 µM | TGI (SK-MEL-2 melanoma): > 100 µM | TGI (SK-OV-3 ovarian): > 100 µM | TGI (SN12C renal): > 100 µM | TGI (MOLT-4 leukemia): > 100 µM | TGI (SR leukemia): > 100 µM | TGI (786-0 renal): > 100 µM | TGI (ACHN renal): > 100 µM | TGI (SNB-19 CNS): > 100 µM | TGI (HL-60(TB) leukemia): > 100 µM | TGI (HCC-2998 colon): > 100 µM | TGI (IGROV1 ovarian): > 100 µM | TGI (PC-3 prostate): > 100 µM | TGI (MDA-N): > 100 µM | TGI (OVCAR-8 ovarian): > 100 µM | TGI (U251 CNS): > 100 µM | TGI (UACC-62 melanoma): > 100 µM

OCCOCn1nc(-c2ccccc2)nc1-c1cnccn1
TGI (LOX IMVI melanoma): > 100 µM | TGI (OVCAR-3 ovarian): > 100 µM | TGI (MCF7 breast): > 100 µM | TGI (CCRF-CEM leukemia): > 100 µM | TGI (NCI-H23 lung): > 100 µM | TGI (SNB-75 CNS): > 100 µM | TGI (EKVX NSCLC): > 100 µM | TGI (SF-268 CNS): > 100 µM | TGI (KM12 colon): > 100 µM | TGI (HT29 colon): > 100 µM | TGI (UO-31 renal): > 100 µM | TGI (HOP-92 NSCLC): > 100 µM | TGI (COLO 205 colon): > 100 µM | TGI (NCI-H460 lung): > 100 µM | TGI (DU-145 prostate): > 100 µM | TGI (TK-10 renal): > 100 µM | TGI (NCI/ADR-RES ovarian): > 100 µM | TGI (K-562 leukemia): > 100 µM | TGI (RXF 393 renal): > 100 µM | TGI (MDA-MB-231 breast): > 100 µM | TGI (SK-MEL-28 melanoma): > 100 µM | TGI (SK-MEL-5 melanoma): > 100 µM | TGI (HOP-62 NSCLC): > 100 µM | TGI (NCI-H522 lung): > 100 µM | TGI (HCT-116 colon): > 100 µM | TGI (SW-620 colon): > 100 µM | TGI (A549 NSCLC): > 100 µM | TGI (T-47D breast): > 100 µM | TGI (RPMI-8226 leukemia): > 100 µM | TGI (OVCAR-5 ovarian): > 100 µM | TGI (HCT-15 colon): > 100 µM | TGI (SF-295 CNS): > 100 µM | TGI (M14 melanoma): > 100 µM | TGI (OVCAR-4 ovarian): > 100 µM | TGI (UACC-257 melanoma): > 100 µM | TGI (SK-OV-3 ovarian): > 100 µM | TGI (SF-539 CNS): > 100 µM | TGI (SN12C renal): > 100 µM | TGI (BT-549 breast): > 100 µM | TGI (MOLT-4 leukemia): > 100 µM | TGI (SR leukemia): > 100 µM | TGI (786-0 renal): > 100 µM | TGI (SNB-19 CNS): > 100 µM | TGI (HL-60(TB) leukemia): > 100 µM | TGI (HCC-2998 colon): > 100 µM | TGI (IGROV1 ovarian): > 100 µM | TGI (PC-3 prostate): > 100 µM | TGI (MDA-N): > 100 µM | TGI (OVCAR-8 ovarian): > 100 µM | TGI (U251 CNS): > 100 µM | TGI (UACC-62 melanoma): > 100 µM
